Source: PubChem BioAssay AID2060494 (Molecular Pharmacology Branch, DTP, NCI, 2025)

Tested on: 435261-313-R-J1-PDC complex spheroid viability
Test: Anticancer human tumor 435261-313-R-J1-PDC patient-derived colon adenocarcinoma cell line growth inhibition [GQUAD]
Conditions: for IC50: curve of first compound; for viability, T/C: stronger effect = lower value
How it was run: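 Multi-cell-type spheroids of tumor cells with HUVEC and mesenchymal stem cells, treated with drug combinations. Concentrations descend in half-log steps from near clinical Cmax, or from 10 microM where Cmax is unknown; viability read-out.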

[1] = second compound 0.0316 µM, first compound 0.0316 µM
[2] = second compound 0.0316 µM, first compound 0.1 µM
[3] = second compound 0.0316 µM, first compound 0.316 µM
[4] = second compound 0.0316 µM, first compound 1 µM
[5] = second compound 0.0316 µM, first compound 3.16 µM
[6] = second compound 0.0316 µM, first compound 10 µM
[7] = second compound 0.1 µM, first compound 0.0316 µM
[8] = second compound 0.1 µM, first compound 0.1 µM
[9] = second compound 0.1 µM, first compound 0.316 µM
[10] = second compound 0.1 µM, first compound 1 µM
[11] = second compound 0.1 µM, first compound 3.16 µM
[12] = second compound 0.1 µM, first compound 10 µM
[13] = second compound 0.316 µM, first compound 0.0316 µM
[14] = second compound 0.316 µM, first compound 0.1 µM
[15] = second compound 0.316 µM, first compound 0.316 µM
[16] = second compound 0.316 µM, first compound 1 µM
[17] = second compound 0.316 µM, first compound 3.16 µM
[18] = second compound 0.316 µM, first compound 10 µM
[19] = second compound 1 µM, first compound 0.0316 µM
[20] = second compound 1 µM, first compound 0.1 µM
[21] = second compound 1 µM, first compound 0.316 µM
[22] = second compound 1 µM, first compound 1 µM
[23] = second compound 1 µM, first compound 3.16 µM
[24] = second compound 1 µM, first compound 10 µM
[25] = second compound 3.16 µM, first compound 0.0316 µM
[26] = second compound 3.16 µM, first compound 0.1 µM
[27] = second compound 3.16 µM, first compound 0.316 µM
[28] = second compound 3.16 µM, first compound 1 µM
[29] = second compound 3.16 µM, first compound 3.16 µM
[30] = second compound 3.16 µM, first compound 10 µM
[31] = second compound 10 µM, first compound 0.0316 µM
[32] = second compound 10 µM, first compound 0.1 µM
[33] = second compound 10 µM, first compound 0.316 µM
[34] = second compound 10 µM, first compound 1 µM
[35] = second compound 10 µM, first compound 3.16 µM
[36] = second compound 10 µM, first compound 10 µM
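Further: spheroids exposed to the agents for seven days before readout.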
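Wherever viability, T/C is given: percent of vehicle control viability with DMSO wells as 100%.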

Q: What does the source list for `CCCS(=O)(=O)Nc1ccc(F)c(C(=O)c2c[nH]c3ncc(-c4ccc(Cl)cc4)cc23)c1F` + CN(C)c1ccc(Nc2c3ccc(NC(=O)CCN4CCCC4)cc3nc3cc(NC(=O)CCN4CCCC4)ccc23)cc1?
A: IC50 (second compound 0.0316 µM): 5.69 µM; IC50 (second compound 0.1 µM): 5.64 µM; IC50 (second compound 0.316 µM): 5.35 µM; IC50 (second compound 1 µM): 5.62 µM; IC50 (second compound 3.16 µM): 3.77 µM; IC50 (second compound 10 µM): < 0.0316 µM; viability, T/C [1]: 123%; viability, T/C [2]: 110%; viability, T/C [3]: 143%; viability, T/C [4]: 123%; viability, T/C [5]: 85.6%; viability, T/C [6]: 15.8%; viability, T/C [7]: 84.3%; viability, T/C [8]: 110%; viability, T/C [9]: 120%; viability, T/C [10]: 92.3%; viability, T/C [11]: 81.6%; viability, T/C [12]: 19.6%; viability, T/C [13]: 124%; viability, T/C [14]: 94.6%; viability, T/C [15]: 92.1%; viability, T/C [16]: 128%; viability, T/C [17]: 76.1%; viability, T/C [18]: 19.1%; viability, T/C [19]: 77.3%; viability, T/C [20]: 90.7%; viability, T/C [21]: 105%; viability, T/C [22]: 92.5%; viability, T/C [23]: 77.7%; viability, T/C [24]: 22.1%; viability, T/C [25]: 82%; viability, T/C [26]: 53.6%; viability, T/C [27]: 74.7%; viability, T/C [28]: 112%; viability, T/C [29]: 57.1%; viability, T/C [30]: 10.5%; viability, T/C [31]: 45.5%; viability, T/C [32]: 54.3%; viability, T/C [33]: 33.9%; viability, T/C [34]: 34%; viability, T/C [35]: 33.8%; viability, T/C [36]: 7.35%

Q: Which IC50 (second compound 0.0316 µM) does the source give for `CC(C)n1c(=O)n(C)c2cnc3cc(F)c(-c4ccc(OCCCN5CCCCC5)nc4)cc3c21` + CN(C)c1ccc(Nc2c3ccc(NC(=O)CCN4CCCC4)cc3nc3cc(NC(=O)CCN4CCCC4)ccc23)cc1 here?
A: The IC50 was over 10 µM.

Q: What about the IC50 (second compound 0.1 µM) of the same compound?
A: The IC50 was 7 µM.

Q: What about the IC50 (second compound 0.316 µM) of the same compound?
A: Its IC50 is 6.84 µM.

Q: What about the IC50 (second compound 1 µM) of the same compound?
A: The IC50 was 7.58 µM.

Q: And the IC50 (second compound 3.16 µM)?
A: Its IC50 is 0.167 µM.

Q: And the IC50 (second compound 10 µM)?
A: Its IC50 is 0.0604 µM.

Q: What about the viability, T/C [1] of the same compound?
A: Its viability, T/C is 127%.

Q: What about the viability, T/C [2] of the same compound?
A: Its viability, T/C is 103%.

Q: And the viability, T/C [3]?
A: The viability, T/C was 92.8%.

Q: And the viability, T/C [4]?
A: The viability, T/C was 98.6%.

Q: And the viability, T/C [5]?
A: The viability, T/C was 89.2%.

Q: What about the viability, T/C [6] of the same compound?
A: Its viability, T/C is 59.1%.

Q: What about the viability, T/C [7] of the same compound?
A: The viability, T/C was 75.2%.

Q: What about the viability, T/C [8] of the same compound?
A: Its viability, T/C is 99.2%.

Q: And the viability, T/C [9]?
A: The viability, T/C was 97.7%.

Q: And the viability, T/C [10]?
A: Its viability, T/C is 71.3%.

Q: And the viability, T/C [11]?
A: Its viability, T/C is 85%.

Q: What about the viability, T/C [12] of the same compound?
A: Its viability, T/C is 34.4%.

Q: What about the viability, T/C [13] of the same compound?
A: Its viability, T/C is 88.8%.

Q: And the viability, T/C [14]?
A: The viability, T/C was 128%.

Q: And the viability, T/C [15]?
A: Its viability, T/C is 109%.

Q: And the viability, T/C [16]?
A: The viability, T/C was 113%.

Q: What about the viability, T/C [17] of the same compound?
A: Its viability, T/C is 73.7%.

Q: And the viability, T/C [18]?
A: Its viability, T/C is 38.3%.

Q: And the viability, T/C [19]?
A: Its viability, T/C is 93.3%.

Q: And the viability, T/C [20]?
A: The viability, T/C was 89.9%.

Q: What about the viability, T/C [21] of the same compound?
A: The viability, T/C was 63.7%.

Q: What about the viability, T/C [22] of the same compound?
A: Its viability, T/C is 63.7%.

Q: What about the viability, T/C [23] of the same compound?
A: The viability, T/C was 70.3%.

Q: What about the viability, T/C [24] of the same compound?
A: Its viability, T/C is 40%.

Q: What about the viability, T/C [25] of the same compound?
A: The viability, T/C was 63.7%.

Q: What about the viability, T/C [26] of the same compound?
A: Its viability, T/C is 54.4%.

Q: And the viability, T/C [27]?
A: The viability, T/C was 42.5%.

Q: What about the viability, T/C [28] of the same compound?
A: The viability, T/C was 30.2%.

Q: What about the viability, T/C [29] of the same compound?
A: Its viability, T/C is 39%.

Q: And the viability, T/C [30]?
A: The viability, T/C was 11.6%.

Q: And the viability, T/C [31]?
A: The viability, T/C was 68.4%.

Q: And the viability, T/C [32]?
A: Its viability, T/C is 36.3%.

Q: What about the viability, T/C [33] of the same compound?
A: Its viability, T/C is 14.8%.

Q: And the viability, T/C [34]?
A: Its viability, T/C is 9.87%.

Q: What about the viability, T/C [35] of the same compound?
A: The viability, T/C was 4.77%.

Q: And the viability, T/C [36]?
A: The viability, T/C was 1.9%.

Q: What does the source list for `CC1COCCN1c1cc(C2(S(C)(=N)=O)CC2)nc(-c2ccnc3[nH]ccc23)n1` (stereo unspecified) + Cc1cnc(CNC(=O)c2c(=O)c3ccc(N4CCCN(C)CC4)nc3n3c2sc2ccccc23)cn1?
A: IC50 (second compound 0.0316 µM): 3.84 µM; IC50 (second compound 0.1 µM): 3.2 µM; IC50 (second compound 0.316 µM): 2.35 µM; IC50 (second compound 1 µM): < 0.0316 µM; IC50 (second compound 3.16 µM): < 0.0316 µM; IC50 (second compound 10 µM): < 0.0316 µM; viability, T/C [1]: 52.9%; viability, T/C [2]: 57.6%; viability, T/C [3]: 66.8%; viability, T/C [4]: 53.9%; viability, T/C [5]: 49.2%; viability, T/C [6]: 42.7%; viability, T/C [7]: 41.4%; viability, T/C [8]: 66.6%; viability, T/C [9]: 46.2%; viability, T/C [10]: 45.9%; viability, T/C [11]: 50.6%; viability, T/C [12]: 38.8%; viability, T/C [13]: 53.5%; viability, T/C [14]: 55.8%; viability, T/C [15]: 60.6%; viability, T/C [16]: 55.1%; viability, T/C [17]: 44.9%; viability, T/C [18]: 40.5%; viability, T/C [19]: 31.8%; viability, T/C [20]: 37.9%; viability, T/C [21]: 35.9%; viability, T/C [22]: 41.5%; viability, T/C [23]: 31.3%; viability, T/C [24]: 26%; viability, T/C [25]: 18.1%; viability, T/C [26]: 10.2%; viability, T/C [27]: 21%; viability, T/C [28]: 18.6%; viability, T/C [29]: 17.3%; viability, T/C [30]: 5.09%; viability, T/C [31]: 0.26%; viability, T/C [32]: 0.15%; viability, T/C [33]: 0.17%; viability, T/C [34]: 0.18%; viability, T/C [35]: 0.2%; viability, T/C [36]: 0.21%
